18 compounds from ChEMBL document CHEMBL3763034, “Exploring the importance of zinc binding and steric/hydrophobic factors in novel HCV replication inhibitors” (Bioorg Med Chem Lett, 2016) can be followed below.

Tested on in one data set: not listed separately
As to the kind of experiment: Cytotoxicity against human Huh-9-13 cells assessed as reduction in cell metabolic activity after 72 hrs by MTS assay. The data set is classed as ADME, cell-based.
Settings: not given
On the technique in general: Formazan colour is commonly taken as a measure of viable cells.
Turning to `CNC(=O)c1cccc2c1nc(-c1ccccc1O)n2Cc1ccccc1`, the CC50 at 72 h is 38 µM.
On to `COC(=O)c1cccc2c1nc(-c1ccccc1O)n2Cc1ccccc1`, for which the CC50 at 72 h was 95 µM.
`O=C(O)c1cccc2c1nc(-c1ccccc1O)n2Cc1ccccc1`: the CC50 at 72 h was over 100 µM.
On the same count and under the same terms, the result for `CNC(=O)c1cccc2[nH]c(-c3ccccc3O)nc12` reads 47 µM; that for `O=C(O)c1cccc2[nH]c(-c3ccccc3O)nc12`, over 100 µM.

Tested on in a further data set: not listed separately
Put plainly: Selectivity index, ratio of CC50 for human Huh-9-13 cells to EC50 for hepatitis C virus genotype 1b I389luc-ubi-neo/NS3-3/5.1 replicon infected in human Huh-9-13 cells. The data set is classed as toxicity, cell-based. As to conditions: read-out: Ratio CC50/EC50. A general note: In antiviral work, replicon cells carry a viral genome segment that copies itself.
`CNC(=O)c1cccc2c1nc(-c1ccccc1O)n2Cc1ccccc1`: the selectivity ratio came to 1.8.
For the compound `COC(=O)c1cccc2c1nc(-c1ccccc1O)n2Cc1ccccc1`, the selectivity ratio came to 106.
In the case of `O=C(O)c1cccc2c1nc(-c1ccccc1O)n2Cc1ccccc1`, the selectivity ratio is over 167.
For `CNC(=O)c1cccc2[nH]c(-c3ccccc3O)nc12`, the selectivity ratio came to 15.
With `O=C(O)c1cccc2[nH]c(-c3ccccc3O)nc12`, the selectivity ratio is over 4.3.

A further data set concerns Hepatitis C virus. As to the kind of experiment: Antiviral activity against HCV1b replicon (I389luc-ubi-neo/NS3-3/5.1) infected in Huh5-2 cells assessed as inhibition of viral RNA replication by luciferase reporter gene assay. The data set is classed as functional, organism-based, Hepacivirus hominis. The settings on record: genotype 1b, Huh-5-2.
Regarding `O=C(O)c1cccc2oc(-c3ccccc3O)nc12`, the 50% effective concentration (EC50) came to 4.9 µM.
In the case of `COC(=O)c1cccc2oc(-c3c(O)ccc4ccccc34)nc12`, the concentration giving a half-maximal response (EC50) was determined as 28 µM.
The same measure, in the same setting: the same measure for `CNC(=O)c1cccc2c1nc(-c1ccccc1O)n2Cc1ccccc1`: 8.4 µM.
The same measure, in the same setting: the result for `COC(=O)c1cccc2oc(-c3cc4ccccc4cc3O)nc12` reads 31 µM; that for `COC(=O)c1cccc2c1nc(-c1ccccc1O)n2Cc1ccccc1`, 7.5 µM; that for `O=C(O)c1cccc2c1nc(-c1ccccc1O)n2Cc1ccccc1`, 2.6 µM.
Take `CNC(=O)c1cccc2[nH]c(-c3ccccc3O)nc12`: the 50% effective concentration (EC50) is 16 µM.
Regarding `COC(=O)c1cccc2oc(-c3ccccc3O)nc12`, the EC50 was determined as 40 µM.
Take `COC(=O)c1cccc2oc(-c3cccc4cccnc34)nc12`: the concentration for a half-maximal effect (EC50) was over 50 µM.
On to `CNC(=O)c1cccc2oc(-c3ccccc3O)nc12`, for which the EC50 stood at 117 µM.
Turning to `COC(=O)c1cccc2oc(-c3ccc4ccccc4c3O)nc12`, the EC50 was 52 µM.
With `O=C(NCc1ccccc1)c1cccc2oc(-c3ccccc3O)nc12`, the EC50 amounted to 10 µM.
Still for that read-out and setting: the result for `CCCCNC(=O)c1cccc2oc(-c3ccccc3O)nc12` reads 7.2 µM.
In the case of `COC(=O)c1cccc2oc(-c3ccccc3S)nc12`, the 50% effective concentration (EC50) worked out at 2.5 µM.
`NC(=O)c1cccc2oc(-c3ccccc3O)nc12`: the EC50 worked out at 47 µM.
On to `COC(=O)c1cccc2[nH]c(-c3ccccc3O)nc12`, for which the concentration for a half-maximal effect (EC50) was found to be 106 µM.
Turning to `CN(C)C(=O)c1cccc2oc(-c3ccccc3O)nc12`, the concentration giving a half-maximal response (EC50) was 109 µM.
Same read-out and setting: the result for `O=C(O)c1cccc2[nH]c(-c3ccccc3O)nc12` reads 24 µM.

Target in a further data set: not listed separately
As to the kind of experiment: Binding affinity to zinc by UV-VIS spectroscopic analysis.
Settings: not given
Compound `O=C(O)c1cccc2oc(-c3ccccc3O)nc12` yielded a Kd of 0.5 µM.
Still for that read-out and setting: the result for `COC(=O)c1cccc2oc(-c3ccccc3O)nc12` reads 65 µM; that for `CNC(=O)c1cccc2oc(-c3ccccc3O)nc12`, 53 µM; that for `COC(=O)c1cccc2oc(-c3ccccc3S)nc12`, 0.23 µM.
The same measure, in the same setting: the result for `COC(=O)c1cccc2[nH]c(-c3ccccc3O)nc12` reads 190 µM.

Tested on in the next data set: not listed separately
Put plainly: Selectivity index, ratio of CC50 for human Huh5-2 cells to EC50 for hepatitis C virus genotype 1b I389luc-ubi-neo/NS3-3/5.1 replicon infected in human Huh5-2 cells. The data set is classed as toxicity, cell-based, Huh-5-2. The settings on record: read-out: Ratio CC50/EC50.
With `O=C(O)c1cccc2oc(-c3ccccc3O)nc12`, the selectivity ratio turned out to be 5.1.
Still for that read-out and setting: the same measure for `COC(=O)c1cccc2oc(-c3c(O)ccc4ccccc34)nc12`: over 1.8.
Still for that read-out and setting: the result for `CNC(=O)c1cccc2c1nc(-c1ccccc1O)n2Cc1ccccc1` reads 12; that for `COC(=O)c1cccc2oc(-c3cc4ccccc4cc3O)nc12`, over 1.6.
Regarding `COC(=O)c1cccc2c1nc(-c1ccccc1O)n2Cc1ccccc1`, the selectivity ratio is over 19.
For `O=C(O)c1cccc2c1nc(-c1ccccc1O)n2Cc1ccccc1`, the selectivity ratio was over 55.
Still for that read-out and setting: the result for `CNC(=O)c1cccc2[nH]c(-c3ccccc3O)nc12` reads over 12.
Turning to `COC(=O)c1cccc2oc(-c3ccccc3O)nc12`, the selectivity ratio was 1.8.
With `CNC(=O)c1cccc2oc(-c3ccccc3O)nc12`, the selectivity ratio was over 1.6.
Still for that read-out and setting: the same measure for `COC(=O)c1cccc2oc(-c3ccc4ccccc4c3O)nc12`: 1.2; for `O=C(NCc1ccccc1)c1cccc2oc(-c3ccccc3O)nc12`: over 5; for `CCCCNC(=O)c1cccc2oc(-c3ccccc3O)nc12`: 5.4.
In the case of `COC(=O)c1cccc2oc(-c3ccccc3S)nc12`, the selectivity ratio stood at 1.6.
Turning to `NC(=O)c1cccc2oc(-c3ccccc3O)nc12`, the selectivity ratio is over 4.2.
As to `COC(=O)c1cccc2[nH]c(-c3ccccc3O)nc12`, the selectivity ratio came to 1.3.
Turning to `CN(C)C(=O)c1cccc2oc(-c3ccccc3O)nc12`, the selectivity ratio is over 1.6.
`O=C(O)c1cccc2[nH]c(-c3ccccc3O)nc12`: the selectivity ratio was over 8.2.

The test system of the next data set is Hepatitis C virus. Put plainly: Antiviral activity against HCV 1b replicon (I389luc-ubi-neo/NS3-3/5.1) infected in Huh-9-13 cells assessed as inhibition of viral RNA replication by RT-PCR method. In kind it is functional, organism-based, Hepacivirus hominis. As to conditions: genotype 1b.
Turning to `CNC(=O)c1cccc2c1nc(-c1ccccc1O)n2Cc1ccccc1`, the EC50 came to 21 µM.
As for `COC(=O)c1cccc2c1nc(-c1ccccc1O)n2Cc1ccccc1`, the EC50 was 0.9 µM.
The same measure, in the same setting: the same measure for `O=C(O)c1cccc2c1nc(-c1ccccc1O)n2Cc1ccccc1`: 0.6 µM; for `CNC(=O)c1cccc2[nH]c(-c3ccccc3O)nc12`: 3.1 µM.
Turning to `O=C(O)c1cccc2[nH]c(-c3ccccc3O)nc12`, the half-maximal effective concentration (EC50) amounted to 23 µM.

Tested on in a further data set: not listed separately
Put plainly: Cytotoxicity against human Huh5-2 cells assessed as reduction in cell metabolic activity after 72 hrs by MTS assay. The data set is classed as ADME, cell-based, Huh-5-2.
Settings: not given
`O=C(O)c1cccc2oc(-c3ccccc3O)nc12`: the cytotoxic concentration (CC50) at 72 h is 25 µM.
Same read-out and setting: the same measure for `COC(=O)c1cccc2oc(-c3c(O)ccc4ccccc34)nc12`: over 50 µM.
`CNC(=O)c1cccc2c1nc(-c1ccccc1O)n2Cc1ccccc1`: the cytotoxic concentration (CC50) at 72 h was 101 µM.
Consider `COC(=O)c1cccc2oc(-c3cc4ccccc4cc3O)nc12`, for which the CC50 at 72 h was over 50 µM.
For the compound `COC(=O)c1cccc2c1nc(-c1ccccc1O)n2Cc1ccccc1`, the CC50 at 72 h was over 140 µM.
Regarding `O=C(O)c1cccc2c1nc(-c1ccccc1O)n2Cc1ccccc1`, the CC50 at 72 h was over 145 µM.
For `CNC(=O)c1cccc2[nH]c(-c3ccccc3O)nc12`, the CC50 at 72 h is over 187 µM.
`COC(=O)c1cccc2oc(-c3ccccc3O)nc12`: the CC50 at 72 h worked out at 71 µM.
Take `COC(=O)c1cccc2oc(-c3cccc4cccnc34)nc12`: the cytotoxic concentration (CC50) at 72 h is over 50 µM.
Take `CNC(=O)c1cccc2oc(-c3ccccc3O)nc12`: the 50% cytotoxic concentration (CC50) at 72 h is over 186 µM.
Same read-out and setting: the result for `COC(=O)c1cccc2oc(-c3ccc4ccccc4c3O)nc12` reads 64 µM.
The same measure, in the same setting: the same measure for `O=C(NCc1ccccc1)c1cccc2oc(-c3ccccc3O)nc12`: over 50 µM.
Same read-out and setting: the result for `CCCCNC(=O)c1cccc2oc(-c3ccccc3O)nc12` reads 39 µM; that for `COC(=O)c1cccc2oc(-c3ccccc3S)nc12`, 4.1 µM; that for `NC(=O)c1cccc2oc(-c3ccccc3O)nc12`, over 197 µM.
In the case of `COC(=O)c1cccc2[nH]c(-c3ccccc3O)nc12`, the 50% cytotoxic concentration (CC50) at 72 h was 132 µM.
On to `CN(C)C(=O)c1cccc2oc(-c3ccccc3O)nc12`, for which the CC50 at 72 h was over 177 µM.
Same read-out and setting: the result for `O=C(O)c1cccc2[nH]c(-c3ccccc3O)nc12` reads over 197 µM.

One may read the CC50 as the concentration that lowers cell viability or growth by half. Usually EC50 stands for the midpoint of the concentration-response curve. The term Kd denotes a measure of binding affinity in units of concentration.
